# Where two headings read alike, the source gives them in different places.
# Experiments:
# [1] = system: MRSA strain 2468; experiment: Compatibility with surfactants (activity retention by agar well diffusion); format: physicochemical, Staphylococcus aureus; settings: surfactant 1% w/v alone, no AMP, agar well diffusion, % of untreated FN33 AMP sample, mean ± SD, n = 3
# Experimental: The AMP solution was prepared in sterile purified water and adjusted to a final concentration of 32 µg/mL. To determine thermal stability, the AMP was exposed to temperatures of 30, 40, 60, 80, and 100 °C, as well as to autoclaving at 121 °C and 15 psi for 15 and 30 min. The susceptibility of the AMP to enzymatic degradation was examined by treating it with proteinase K, trypsin, and α-chymotrypsin (each at 1 mg/mL, Sigma-Aldrich, Warren, MI, USA), representing different proteolytic mechanisms. The AMP’s compatibility with surfactants was assessed by incubating it with 1% SDS, 1% CTAB, and 1% Triton X-100 (AppliChem GmbH, Darmstadt, Germany). Additionally, the effect of pH variations on AMP integrity was tested by adjusting the solution to pH 1, 4, 8, 10, and 14. The pH was neutralized to the original pH after incubation before conducting antibacterial activity tests. […] Stability data were expressed as residual activity percentages relative to the untreated sample (mean ± SD), and statistical significance was evaluated using two-way ANOVA and Tukey’s post hoc test, with a p-value < 0.05 considered significant.
# [2] = system: MRSA strain 1096; experiment: Agar well diffusion method; format: cell-based, Staphylococcus aureus; settings: 9 mm wells, MH agar, 37 °C 18 h, antibiotics 30 µg, mean ± SD, n = 3
# Experimental: (§1) The optical density of the starter cultures was adjusted to 0.1 OD at 625 nm using 0.85% sterile NaCl solution before transferring 1 mL of the culture into 49 mL of fresh broth. The inoculum was then incubated at 30 °C with shaking at 150 rpm for 3 days. The CFS was obtained by centrifugation at 10,000× g at 4 °C for 15 min and filtered through a 0.2 µm sterile cellulose acetate syringe filter (Sigma-Aldrich, Warren, MI, USA). The antibacterial activity of the isolates was tested against S. aureus TISTR 517, E. coli TISTR 887, K. pneumoniae TISTR 1383, and P. aeruginosa TISTR 357, obtained from the Thailand Institute of Scientific and Technological Research (TISTR), Thailand, and three MRSA strains (strains 142, 1096, and 2468), provided by the medical technology laboratory of the School of Allied Health Sciences, Walailak University, Thailand. The pathogenic bacteria were incubated on MH agar at 37 °C for 18 h to obtain fresh cultures. Colonies of the test pathogens were scraped and suspended in 0.85% sterile NaCl solution. The test pathogen suspensions were adjusted to a turbidity equivalent to 0.1 OD at 625 nm before being spread onto MH agar plates. […] Wells with a diameter of 9 mm were made in the agar using a sterile cork borer. The collected CFS from the bacterial culture was transferred into the wells, and the plates were incubated at 37 °C for 18 h. Cefoxitin (30 µg) and vancomycin (30 µg) (Sigma-Aldrich Co., St. Louis, MO, USA) were used as positive controls. The experiment was repeated in triplicate, and the mean ± SD of the inhibition zone diameters was recorded.
# [3] = system: MRSA strain 142; experiment: Agar well diffusion method; format: cell-based, Staphylococcus aureus; settings: 9 mm wells, MH agar, 37 °C 18 h, antibiotics 30 µg, mean ± SD, n = 3
# Experimental: as §1
# [4] = system: MRSA strain 2468; experiment: Agar well diffusion method; format: cell-based, Staphylococcus aureus; settings: 9 mm wells, MH agar, 37 °C 18 h, antibiotics 30 µg, mean ± SD, n = 3
# Experimental: as §1
# [5] = system: S. aureus TISTR 517; experiment: Agar well diffusion method; format: cell-based, Staphylococcus aureus; settings: 9 mm wells, MH agar, 37 °C 18 h, antibiotics 30 µg, mean ± SD, n = 3
# Experimental: as §1
# [6] = system: E. coli TISTR 887; experiment: Agar well diffusion method; format: cell-based; settings: 9 mm wells, MH agar, 37 °C 18 h, antibiotics 30 µg, mean ± SD, n = 3
# Experimental: as §1
# [7] = system: K. pneumoniae TISTR 1383; experiment: Agar well diffusion method; format: cell-based; settings: 9 mm wells, MH agar, 37 °C 18 h, antibiotics 30 µg, mean ± SD, n = 3
# Experimental: as §1
# [8] = system: P. aeruginosa TISTR 357; experiment: Agar well diffusion method; format: cell-based; settings: 9 mm wells, MH agar, 37 °C 18 h, antibiotics 30 µg, mean ± SD, n = 3
# Experimental: as §1
# [9] = system: S. aureus TISTR 517; experiment: Broth microdilution MIC/MBC (CLSI); format: cell-based, Staphylococcus aureus
# Experimental: (§2) The broth microdilution method was performed following the guidelines of the Clinical and Laboratory Standards Institute (CLSI). Test strains including S. aureus TISTR 517 and MRSA strains 142, 1096, and 2468 were cultured on MH agar at 37 °C for 18 h. A single colony from each strain was suspended in 0.85% NaCl until it reached a turbidity of 0.1 OD at 625 nm (1 × 10^8 CFU/mL). The bacterial cells were then diluted to 5 × 10^6 CFU/mL using cation-adjusted Mueller–Hinton broth (CAMHB). Ten microliters of the cell suspension were added to each well of a 96-well plate to make the total volume in each well 100 µL. The AMP was added to achieve final concentrations ranging from 0.125 to 64 µg/mL. Vancomycin and cefoxitin were used as positive controls, while antibiotic-free samples were used as negative controls. The plate was incubated at 37 °C for 24 h. Each experiment was performed in triplicate. The MIC was determined as the lowest concentration that inhibited visible bacterial growth. For the MBC, 100 µL from each dilution was spread on MH agar and incubated at 37 °C for 24 h. The MBC was the lowest concentration at which no bacterial colonies appeared on the agar plates.
# [10] = system: MRSA strain 1096; experiment: Broth microdilution MIC/MBC (CLSI); format: cell-based; settings: Staphylococcus aureus
# Experimental: as §2
# [11] = system: MRSA strain 142; experiment: Broth microdilution MIC/MBC (CLSI); format: cell-based; settings: Staphylococcus aureus
# Experimental: as §2
# [12] = system: MRSA strain 2468; experiment: Broth microdilution MIC/MBC (CLSI); format: cell-based; settings: Staphylococcus aureus
# Experimental: as §2
# [13] = system: MRSA strains; experiment: Broth microdilution MIC/MBC (CLSI), for the MRSA strains together; format: cell-based; settings: Staphylococcus aureus
# Experimental: as §2
# [14] = system: MRSA strain 2468; experiment: Scanning electron microscopy of treated cells; format: cell-based, Staphylococcus aureus; settings: 1× MIC, 16 h / 18 h (figure legend), 30,000× magnification
# Description: (§3) SEM was used to examine morphological alterations in the bacterial cells. […] This appearance reflected their natural cellular structure.
# (§4) Figure 5 SEM images captured at 30,000× magnification. […] The non-treatment condition served as a negative control.
# [15] = system: S. aureus TISTR 517; experiment: Scanning electron microscopy of treated cells; format: cell-based, Staphylococcus aureus; settings: 1× MIC, 16 h / 18 h (figure legend), 30,000× magnification
# Description: as §3, §4
# [16] = DPPH radical-scavenging assay; settings: 0.1 mM DPPH, 25 °C, 30 min in darkness, absorbance 517 nm; mean ± SD, n = 3
# Experimental: A 200 μL sample or ascorbic acid (Gammaco Ltd., Bangkok, Thailand) was added to 2 mL of 0.1 mM DPPH solution (Merck Ltd., Bangkok, Thailand) and incubated at 25 °C in darkness for 30 min. The DPPH color change from purple to pale yellow was observed, and the absorbance at 517 nm was measured using a UV–visible spectrophotometer.
# [17] = 100 µL of each dilution spread on MH agar, 37 °C 24 h, triplicate
# [18] = Staphylococcus aureus, TISTR517, 24 h
# [19] = broth microdilution, CAMHB, 37 °C 24 h, triplicate
# [20] = 100 µL of each dilution spread on MH agar, 37 °C 24 h, triplicate, read-out: MBC
# [21] = broth microdilution, CAMHB, 37 °C 24 h, triplicate, read-out: MIC
Compound,"Antibacterial activity against MRSA Strain 2468 of surfactant alone, on the scale of FN33 AMP activity retention (%) ([1]; 1 h)","Antibacterial activity against MRSA Strain 2468 of surfactant alone, on the scale of FN33 AMP activity retention (%) ([1]; 6 h)","Antibacterial activity against MRSA Strain 2468 of surfactant alone, on the scale of FN33 AMP activity retention (%) ([1]; 12 h)",Zone of Inhibition [2],Zone of Inhibition [3],Zone of Inhibition [4],Zone of Inhibition [5],Zone of Inhibition [6],Zone of Inhibition [7],Zone of Inhibition [8],"MBC [9, 17]","MIC [9, 19]",further results
"CCCCCCCCCCCCOS(=O)(=O)[O-].[Na+] [SDS, sodium dodecyl sulfate, reference compound]",110.10 ± 0.84 %,109.30 ± 0.56 %,108.93 ± 0.57 %,–,–,–,–,–,–,–,–,–,–
Triton X-100 [reference compound],0.00 ± 0.00 %,0.00 ± 0.00 %,0.00 ± 0.00 %,–,–,–,–,–,–,–,–,–,–
CN[C@H](CC(C)C)C(=O)N[C@H]1C(=O)N[C@@H](CC(N)=O)C(=O)N[C@H]2C(=O)N[C@H]3C(=O)N[C@H](C(=O)N[C@H](C(=O)O)c4cc(O)cc(O)c4-c4cc3ccc4O)[C@H](O)c3ccc(c(Cl)c3)Oc3cc2cc(c3O[C@@H]2O[C@H](CO)[C@@H](O)[C@H](O)[C@H]2O[C@H]2C[C@](C)(N)[C@H](O)[C@H](C)O2)Oc2ccc(cc2Cl)[C@H]1O [Vancomycin],–,–,–,24.38 ± 0.51 mm,24.13 ± 1.27 mm,24.64 ± 1.02 mm,23.37 ± 1.27 mm,0.00 ± 0.00 mm,0.00 ± 0.00 mm,0.00 ± 0.00 mm,2 mg/L,2 mg/L,"MBC [9, 18]: 2 mg/L; MIC [9, 18]: 2 mg/L; MBC ([10]; 24 h): 2 mg/L; MIC ([10]; 24 h): 2 mg/L; MBC ([11]; 24 h): 2 mg/L; MIC ([11]; 24 h): 2 mg/L; MBC ([12]; 24 h): 2 mg/L; MIC ([12]; 24 h): 2 mg/L; MBC ([13]; MRSA): 2 mg/L; MIC ([13]; MRSA): 2 mg/L; morphological changes under SEM [14]: complete cell lysis; morphological changes under SEM [15]: complete cell lysis"
CO[C@@]1(NC(=O)Cc2cccs2)C(=O)N2C(C(=O)O)=C(COC(N)=O)CS[C@@H]21 [Cefoxitin],–,–,–,0.00 ± 0.00 mm,0.00 ± 0.00 mm,0.00 ± 0.00 mm,35.87 ± 0.46 mm,35.12 ± 1.04 mm,19.67 ± 0.88 mm,0.00 ± 0.00 mm,2 mg/L,2 mg/L,"MBC ([9]; Staphylococcus aureus, TISTR517, 100 µL of each dilution spread on MH agar, 37 °C 24 h, triplicate, read-out: MBC): 2 mg/L; MIC ([9]; Staphylococcus aureus, TISTR517, broth microdilution, CAMHB, 37 °C 24 h, triplicate, read-out: MIC): 2 mg/L; MBC [10, 20]: > 64 mg/L; MIC [10, 21]: > 64 mg/L; MBC [11, 20]: > 64 mg/L; MIC [11, 21]: > 64 mg/L; MBC [12, 20]: > 64 mg/L; MIC [12, 21]: > 64 mg/L; MBC ([13]; text statement for the MRSA strains (142, 1096, 2468) together, read-out: MBC): > 64 mg/L; MIC ([13]; text statement for the MRSA strains (142, 1096, 2468) together, read-out: MIC): > 64 mg/L"
"O=C1O[C@H]([C@@H](O)CO)C(O)=C1O [Ascorbic acid, ascorbic acid, reference compound]",–,–,–,–,–,–,–,–,–,–,–,–,IC50 (DPPH radical scavenging) [16]: 6.78 ± 1.58 mg/L
"CCCCCCCCCCCCCCCC[N+](C)(C)C [CTAB, cetyltrimethylammonium bromide, reference compound]",98.62 ± 0.69%,98.89 ± 1.10%,98.42 ± 0.72%,–,–,–,–,–,–,–,–,–,–

# Reference: article PMC12113356, “Novel Anti-MRSA Peptide from Mangrove-Derived Virgibacillus chiguensis FN33 Supported by Genomics and Molecular Dynamics” (Marine Drugs, 2025)
